Data set [1] deals with T1, Epidermal growth factor receptor (Homo sapiens, UniProt P00533, L858R/T790M). As to the kind of experiment: Inhibition of EGFR T790M/L858R double mutant autophosphorylation in human NCI-H1975 cells incubated for 2 hrs by ELISA. Format: cell-based.
The target in data set [2] is Epidermal growth factor receptor (Homo sapiens, UniProt P00533, EX19DEL). Nature of the data set: Inhibition of EGFR exon19 deletion activating mutant autophosphorylation in human PC9 cells incubated for 2 hrs by ELISA. Format: cell-based, PC-9.
Chain of Epidermal growth factor receptor (Homo sapiens, UniProt P00533, EX19DEL) (P00533 whole entry, looked up, stated change not applied): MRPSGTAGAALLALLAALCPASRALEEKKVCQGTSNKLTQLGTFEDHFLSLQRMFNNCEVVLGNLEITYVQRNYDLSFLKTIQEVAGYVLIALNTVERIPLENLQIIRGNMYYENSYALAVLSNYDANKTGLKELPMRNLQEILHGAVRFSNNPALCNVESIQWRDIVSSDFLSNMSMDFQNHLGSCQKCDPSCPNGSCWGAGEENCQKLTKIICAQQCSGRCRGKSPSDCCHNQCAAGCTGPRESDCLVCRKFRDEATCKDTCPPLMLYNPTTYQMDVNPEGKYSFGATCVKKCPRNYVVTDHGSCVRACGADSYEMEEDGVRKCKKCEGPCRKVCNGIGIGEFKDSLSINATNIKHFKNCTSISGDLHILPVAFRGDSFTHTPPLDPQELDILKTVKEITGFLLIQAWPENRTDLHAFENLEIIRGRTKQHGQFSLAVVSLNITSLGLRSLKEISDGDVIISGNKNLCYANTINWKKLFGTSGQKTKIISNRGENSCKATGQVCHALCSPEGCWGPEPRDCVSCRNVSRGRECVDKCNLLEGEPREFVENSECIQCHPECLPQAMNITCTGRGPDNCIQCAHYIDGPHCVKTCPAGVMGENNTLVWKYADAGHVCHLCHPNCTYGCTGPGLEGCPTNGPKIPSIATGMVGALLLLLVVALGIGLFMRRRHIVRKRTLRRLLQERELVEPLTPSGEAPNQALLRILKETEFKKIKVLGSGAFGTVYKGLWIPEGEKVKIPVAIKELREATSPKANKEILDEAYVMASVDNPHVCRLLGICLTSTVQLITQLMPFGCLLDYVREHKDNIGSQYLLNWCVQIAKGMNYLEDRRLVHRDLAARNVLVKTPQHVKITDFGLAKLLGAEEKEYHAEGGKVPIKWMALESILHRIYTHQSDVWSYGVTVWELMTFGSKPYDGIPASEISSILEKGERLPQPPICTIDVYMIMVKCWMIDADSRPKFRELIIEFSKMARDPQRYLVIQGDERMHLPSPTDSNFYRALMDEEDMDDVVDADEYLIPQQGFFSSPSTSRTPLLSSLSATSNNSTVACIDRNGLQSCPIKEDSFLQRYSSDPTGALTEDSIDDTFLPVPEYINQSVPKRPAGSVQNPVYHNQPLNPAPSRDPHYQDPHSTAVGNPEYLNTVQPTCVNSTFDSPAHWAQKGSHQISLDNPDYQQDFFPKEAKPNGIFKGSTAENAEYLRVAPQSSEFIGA
In data set [3] the target is Epidermal growth factor receptor (Homo sapiens, UniProt P00533). As to the kind of experiment: Inhibition of wild-type EGFR autophosphorylation in human LoVo cells incubated for 2 hrs followed by EGF-stiumlation for 10 mins by ELISA. Format: cell-based.
Chain of Epidermal growth factor receptor (Homo sapiens, UniProt P00533) (P00533 whole entry): as the sequence (P00533 whole entry, looked up, stated change not applied) above
A short description of data set [4]: Solubility of compound at pH 7.4. Format: physicochemical. The settings on record: buffer.
Data set [5] is described as follows: Chemical stability of compound. Format: physicochemical.
In data set [6] the target is T1, Epidermal growth factor receptor. Nature of the data set: Inhibition of recombinant N-terminal GST-tagged human EGFR T790M/L858R double mutant using biotinylated TK substrate incubated for 50 mins by HTRF assay. Format: protein assay.
A short description of data set [7]: Intrinsic clearance in human liver microsomes. The note with it: read-out: CLH. Format: ADME.
For another data set, the species on record is Homo sapiens. Nature of the data set: Selectivity ratio of IC50 for wild-type EGFR (unknown origin) to IC50 for recombinant N-terminal GST-tagged human EGFR T790M/L858R double mutant.
The subject of data set [8] is Epidermal growth factor receptor (Homo sapiens), P00533 [T790M]. Nature of the data set: Reversible inhibition of EGFR T790M mutant (unknown origin).

Values after ≈ are worked out from the molar mass of the structure shown. Active and inactive are the calls of the source. The calls are words filed in the database; no cut-off is given here.

T1 sequence (P00533 25-1210 T790M/L858R limits assumed): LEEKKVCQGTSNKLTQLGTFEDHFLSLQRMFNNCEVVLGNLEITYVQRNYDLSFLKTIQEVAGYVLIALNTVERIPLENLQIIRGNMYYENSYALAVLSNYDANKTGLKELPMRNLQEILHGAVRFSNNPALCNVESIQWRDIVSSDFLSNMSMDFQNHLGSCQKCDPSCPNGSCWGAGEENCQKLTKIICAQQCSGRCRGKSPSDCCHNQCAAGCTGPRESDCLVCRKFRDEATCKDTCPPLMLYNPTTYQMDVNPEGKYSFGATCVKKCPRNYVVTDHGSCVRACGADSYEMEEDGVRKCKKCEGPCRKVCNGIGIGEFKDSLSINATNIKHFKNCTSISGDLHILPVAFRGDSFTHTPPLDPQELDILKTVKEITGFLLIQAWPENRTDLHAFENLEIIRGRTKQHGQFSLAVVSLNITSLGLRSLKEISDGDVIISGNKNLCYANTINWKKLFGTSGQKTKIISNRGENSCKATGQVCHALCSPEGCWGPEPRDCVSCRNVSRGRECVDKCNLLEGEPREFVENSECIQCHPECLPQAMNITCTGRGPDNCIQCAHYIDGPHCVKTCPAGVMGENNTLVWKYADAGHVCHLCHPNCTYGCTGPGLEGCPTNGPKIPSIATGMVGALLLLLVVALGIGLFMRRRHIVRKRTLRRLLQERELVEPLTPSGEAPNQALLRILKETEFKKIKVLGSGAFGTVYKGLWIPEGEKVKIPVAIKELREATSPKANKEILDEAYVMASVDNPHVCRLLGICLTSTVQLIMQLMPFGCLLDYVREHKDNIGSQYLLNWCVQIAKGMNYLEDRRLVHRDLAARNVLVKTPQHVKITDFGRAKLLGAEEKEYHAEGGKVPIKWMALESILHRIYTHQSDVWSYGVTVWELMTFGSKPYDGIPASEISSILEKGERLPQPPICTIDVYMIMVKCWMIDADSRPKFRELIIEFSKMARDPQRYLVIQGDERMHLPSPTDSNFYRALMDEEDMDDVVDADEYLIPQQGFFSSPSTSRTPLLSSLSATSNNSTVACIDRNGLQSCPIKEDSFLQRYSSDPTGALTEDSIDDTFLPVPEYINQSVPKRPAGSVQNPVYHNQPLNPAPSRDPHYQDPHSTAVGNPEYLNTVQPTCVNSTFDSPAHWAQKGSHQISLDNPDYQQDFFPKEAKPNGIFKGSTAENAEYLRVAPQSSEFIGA
Chain of Epidermal growth factor receptor (Homo sapiens), P00533 [T790M] (P00533 whole entry T790M): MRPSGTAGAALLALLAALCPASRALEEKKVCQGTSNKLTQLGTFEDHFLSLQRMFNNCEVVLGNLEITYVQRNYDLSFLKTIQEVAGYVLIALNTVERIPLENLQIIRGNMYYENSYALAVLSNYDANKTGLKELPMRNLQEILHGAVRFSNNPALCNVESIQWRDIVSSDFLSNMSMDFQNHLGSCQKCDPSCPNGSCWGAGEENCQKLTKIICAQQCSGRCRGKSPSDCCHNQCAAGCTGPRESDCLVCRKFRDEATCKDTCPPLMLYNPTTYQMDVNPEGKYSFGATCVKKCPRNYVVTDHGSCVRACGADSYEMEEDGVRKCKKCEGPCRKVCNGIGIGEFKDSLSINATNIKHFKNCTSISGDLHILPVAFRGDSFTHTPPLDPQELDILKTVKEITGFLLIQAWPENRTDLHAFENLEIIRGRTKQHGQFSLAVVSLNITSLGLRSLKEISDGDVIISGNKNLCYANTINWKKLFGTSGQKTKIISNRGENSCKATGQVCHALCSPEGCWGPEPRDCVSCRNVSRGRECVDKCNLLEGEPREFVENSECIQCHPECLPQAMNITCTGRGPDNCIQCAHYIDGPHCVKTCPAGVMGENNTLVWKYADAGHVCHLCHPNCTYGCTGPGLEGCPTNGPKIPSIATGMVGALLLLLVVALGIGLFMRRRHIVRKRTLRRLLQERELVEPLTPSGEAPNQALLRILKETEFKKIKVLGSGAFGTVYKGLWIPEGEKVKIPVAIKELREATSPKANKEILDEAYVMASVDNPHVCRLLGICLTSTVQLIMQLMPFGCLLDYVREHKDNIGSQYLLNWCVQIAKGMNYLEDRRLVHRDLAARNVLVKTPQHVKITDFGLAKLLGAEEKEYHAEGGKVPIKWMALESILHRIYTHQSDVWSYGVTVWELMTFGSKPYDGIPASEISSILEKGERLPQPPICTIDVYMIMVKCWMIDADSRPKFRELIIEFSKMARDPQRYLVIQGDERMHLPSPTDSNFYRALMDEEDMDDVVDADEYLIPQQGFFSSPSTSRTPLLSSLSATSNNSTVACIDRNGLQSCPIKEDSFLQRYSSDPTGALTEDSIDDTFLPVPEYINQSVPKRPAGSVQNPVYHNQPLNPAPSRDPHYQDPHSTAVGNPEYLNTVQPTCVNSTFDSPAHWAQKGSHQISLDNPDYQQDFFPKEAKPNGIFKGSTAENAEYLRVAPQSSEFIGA

For the molecule `C=CC(=O)Nc1ccccc1Cn1c(-c2nc(-c3cnn(C4CCN(C)CC4)c3)cnc2N)nc2ccccc21`, the EC50 worked out at 7 nM in data set [1], 3 nM in data set [2] and 420 nM in [3]. The solubility in data set [4] came to 35 µM (≈ 18.7 µg/mL). Further, the Stability result in data set [5] was “Unstable”.

In the case of `C=CC(=O)NCCn1c(-c2nc(-c3cnn(C4CCN(C)CC4)c3)cnc2N)nc2ccccc21`, in [6], the IC50 came out at 2200 nM. The molecule further registered an EC50 in data set [1] of 14900 nM.

In the case of `C=CC(=O)Nc1cccc(-n2c(-c3nc(-c4cnn(CCN5CCOCC5)c4)cnc3N)nc3ccccc32)c1`, the figures for the concentration giving a half-maximal response (EC50) in [1], in data set [2] and in data set [3] were 24 nM, 22 nM and 5000 nM, respectively. Further, in data set [7], the microsomal CLint amounted to 298 µL/min/mg. The molecule also yielded a solubility in data set [4] of under 10 µM.

On to `C=CC(=O)Nc1cccc(-n2c(-c3nc(-c4cnn(C)c4)cnc3N)nc3ccccc32)c1`, for which the EC50 in [1] was 10 nM; in data set [2], 9 nM; in [3], 1070 nM. Besides, in data set [7], the microsomal CLint turned out to be 24 µL/min/mg. Moreover, in [4], the solubility was under 10 µM.

Take `C=CC(=O)Nc1cccc(-n2c(-c3nc(-c4cnn(CCO)c4)cnc3N)nc3ccccc32)c1`: the values for the concentration for a half-maximal effect (EC50) in data set [1], in data set [2] and in data set [3] were 12 nM, 8 nM and 2250 nM, respectively. The microsomal CLint in [7] amounted to 54 µL/min/mg. In [4], this molecule gave a solubility of under 10 µM.

Regarding `C=CC(=O)Nc1cccc(-n2c(-c3nc(-c4cnn(C5CCN(CC)CC5)c4)cnc3N)nc3ccccc32)c1`, the concentration giving a half-maximal response (EC50) is 9 nM in data set [1], 16 nM in [2] and 1960 nM in data set [3]. Also, the microsomal CLint in data set [7] came to 197 µL/min/mg. The molecule further displayed a solubility in data set [4] of under 10 µM.

Take `C=CC(=O)Nc1cccc(-n2c(-c3nc(-c4cnn(C5CCN(C(=O)CN(C)C)CC5)c4)cnc3N)nc3ccccc32)c1`: the EC50 in data set [1] was 15 nM; in data set [2] it was 13 nM; in data set [3], 1140 nM. For the same molecule, the microsomal CLint in data set [7] was found to be 66 µL/min/mg. In data set [4], this molecule yielded a solubility of 18 µM (≈ 10.6 µg/mL).

In the case of `C=CC(=O)NCCCn1c(-c2nc(-c3cnn(C4CCN(C)CC4)c3)cnc2N)nc2ccccc21`, in data set [6], the half-maximal inhibitory concentration (IC50) turned out to be 200 nM. For the same molecule, the midpoint of the response in data set [1], the EC50, lay at 1710 nM.

Turning to `C=CC(=O)Nc1cccc(-n2c(-c3nc(-c4cnn(CCN5CCN(C)CC5)c4)cnc3N)nc3ccccc32)c1`, the EC50 turned out to be 15 nM in [1], 15 nM in data set [2] and 2310 nM in data set [3]. The microsomal CLint in [7] was found to be 60 µL/min/mg. Moreover, the solubility in [4] was 30 µM (≈ 16.5 µg/mL).

For the molecule `C=CC(=O)Nc1cccc(Cn2c(-c3nc(-c4cnn(C5CCN(C)CC5)c4)cnc3N)nc3ccccc32)c1`, the EC50 was 360 nM in data set [1], 280 nM in [2] and over 25000 nM in [3].

Regarding `C=C(C)C(=O)Nc1cccc(-n2c(-c3nc(-c4cnn(C5CCN(C)CC5)c4)cnc3N)nc3ccccc32)c1`, the results for the EC50 in data set [1], in data set [2] and in data set [3] were over 20000 nM, 9130 nM and over 30000 nM, respectively.

On to `C=CC(=O)N(C)c1cccc(-n2c(-c3nc(-c4cnn(C5CCN(C)CC5)c4)cnc3N)nc3ccccc32)c1`, for which the EC50 in data set [1] was determined as 390 nM; in [2], 250 nM; in data set [3], 10900 nM.

Turning to `C=CC(=O)Nc1cccc(-n2c(-c3nc(-c4cnn(C5CCN(C(C)=O)CC5)c4)cnc3N)nc3ccccc32)c1`, the EC50 came out at 22 nM in data set [1], 23 nM in data set [2] and 3510 nM in data set [3]. Also, in data set [7], the microsomal CLint was over 300 µL/min/mg. For the same molecule, in data set [4], the solubility is under 10 µM.

In the case of `C=CC(=O)Nc1ccc(-n2c(-c3nc(-c4cnn(C5CCN(C)CC5)c4)cnc3N)nc3ccccc32)cc1`, the EC50 in data set [1] was determined as 550 nM; in data set [2] it was 120 nM; in data set [3] it was 3380 nM.

Turning to `C=CC(=O)Nc1cccc(-n2c(-c3nc(-c4cnn(C5CCN(C(=O)CO)CC5)c4)cnc3N)nc3ccccc32)c1`, the EC50 was determined as 24 nM in [1], 18 nM in [2] and 3000 nM in data set [3]. In [7], the microsomal CLint was over 300 µL/min/mg. In [4], the solubility is under 10 µM.

Turning to `C=CC(=O)Nc1cccc(-n2c(-c3nc(-c4cnn(C5CCN(C)CC5)c4)cnc3N)nc3ccccc32)c1F`, the EC50 in data set [1] came to 23 nM; in data set [2] it was 26 nM; in data set [3], 2060 nM. Further, in data set [4], the solubility is under 10 µM.

On to `C=CC(=O)Nc1cccc(-n2c(-c3nc(-c4cnn(C5CCN(C(C)C)CC5)c4)cnc3N)nc3ccccc32)c1`, for which the concentration for a half-maximal effect (EC50) in [1] was 14 nM; in [2] it was 9 nM; in data set [3], 760 nM. Further, the microsomal CLint in data set [7] came to 37 µL/min/mg. The same molecule came in with a solubility in data set [4] of under 10 µM.

With `C=CC(=O)Nc1cccc(-n2c(-c3nc(-c4cnn(C5CCN(C)CC5)c4)cnc3N)nc3ccncc32)c1`, the EC50 is 150 nM in [1], 100 nM in data set [2] and over 15000 nM in data set [3]. Moreover, the microsomal CLint in data set [7] was found to be 68 µL/min/mg. For the same molecule, in data set [4], the solubility is 540 µM (≈ 281 µg/mL).

For `C=CC(=O)Nc1cccc(-n2c(-c3nc(-c4cnn(C5CCN(C)CC5)c4)cnc3N)nc3cnccc32)c1`, the EC50 turned out to be 18 nM in [1], 10 nM in data set [2] and 4390 nM in data set [3]. Moreover, the microsomal CLint in data set [7] was found to be 169 µL/min/mg. This molecule showed a solubility in data set [4] of 300 µM (≈ 156 µg/mL).

In the case of `CN1CCC(n2cc(-c3cnc(N)c(-c4nc5ccccc5[nH]4)n3)cn2)CC1`, the IC50 in data set [6] turned out to be 290 nM. The Ratio IC50 in the data set filed under Homo sapiens was determined as 5. Also, in data set [8], the inhibition result is “Active”.

Turning to `CC(=O)Nc1cccc(-n2c(-c3nc(-c4cnn(C5CCN(C)CC5)c4)cnc3N)nc3ccccc32)c1`, the EC50 in data set [1] is over 30000 nM; in [2] it was 8010 nM; in data set [3], over 30000 nM.

Turning to `C=CC(=O)Nc1ccc(F)c(-n2c(-c3nc(-c4cnn(C5CCN(C)CC5)c4)cnc3N)nc3ccccc32)c1`, the results for the EC50 in data set [1], in data set [2] and in data set [3] were 73 nM, 43 nM and 4390 nM, respectively. The same molecule gave a solubility in data set [4] of under 10 µM.

As for `C=CC(=O)Nc1ccc(Cn2c(-c3nc(-c4cnn(C5CCN(C)CC5)c4)cnc3N)nc3ccccc32)cc1`, the EC50 in [1] is 1780 nM; in [2], 5060 nM; in [3], over 30000 nM.

Take `CCn1c(-c2nc(-c3cnn(C4CCN(C)CC4)c3)cnc2N)nc2ccccc21`: the IC50 in data set [6] is 50 nM. In the data set listed under Homo sapiens, the Ratio IC50 came to 5. In addition, the inhibition entry in data set [8] was “Active”.

For `C=CC(=O)Nc1cc(-n2c(-c3nc(-c4cnn(C5CCN(C)CC5)c4)cnc3N)nc3ccccc32)ccc1OC`, the 50% effective concentration (EC50) was 1340 nM in [1], 370 nM in data set [2] and over 20000 nM in data set [3]. Also, the solubility in data set [4] is under 10 µM.
